One series relates to DLD-1 BRCA2(−/−). The series can be described thus: Cell growth inhibition assay (CellTiter-Glo cell viability, 7 days). The following applies: Homo sapiens, 168 h, DLD-1 BRCA2(-/-) cells. Type of series: cell-based. (In general: Cellular ATP, detected with luciferase, serves as a proxy for viable cell number.)
Series [1] has as its system MDA-MB-436 (mutated BRCA1) cell lines. Described as above. In kind it is cell-based. As to conditions: Homo sapiens, 168 h, MDA-MB-436 cells.
Series [2] is described as follows: In vitro human hepatic clearance in cellular relay format. In kind it is in vitro ADME. The following applies: cryopreserved hepatocytes in suspension (relay format); human hepatocytes relay, 5 incubations of 4 hrs, 0.5E+06 viable cells/mL. The protocol: (§1) Example C: In Vitro Human Hepatic Clearance in Cellular Relay Format
(§2) Working stocks of individual test articles were prepared at concentrations of 100 μM by diluting 10 mM stocks prepared in DMSO 100-fold (v:v) into ACN/1H2O (50/50, v:v). Human cryopreserved hepatocytes were thawed in a 37° C. water bath in <2 min., suspended in thawing media, and then centrifuged at 100×g for 10 min. Thawing media was aspirated, and pelleted hepatocytes were resuspended into incubation media at 1.5E+06 cells/mL. Cell viability was determined using an Acridine Orange/Propidium Iodine stain, and hepatocytes were further diluted with incubation media to 0.5E+06 viable cells/mL. Hepatocyte aliquots of 495 μL were added to wells of a 24-well plate, and test article incubations were initiated by the addition of 5 μL of 100 μM working stocks. Plates were incubated at 37° C. in a 5% CO2 atmosphere at 95% relative humidity on an orbital shaker at 300 rpm. Incubations were performed in duplicate. At time=0 and 4 hrs., aliquots of each incubation were extracted with 6 volumes ACN containing internal standards. After 4 hrs., hepatocytes were removed from the incubations via centrifugation, and supernatants were stored frozen until the following day at which point incubations were reinitiated by diluting thawed supernatants with freshly thawed hepatocytes in incubation media, again to a final concentration of 0.5E+06 viable cells/mL. These steps were repeated for a total of 5 incubations of 4 hrs. each covering 20 total hours of incubation. Incubational losses due to cellular uptake, nonspecific binding, and dilution at each relay step were corrected for. Supernatants of all incubation aliquots were diluted into ultrapure water prior to analysis via LC/MS/MS. In vitro intrinsic clearances (CLint) in μL/min/IE+06 cells were determined for each incubation from calculated in vitro half-lives determined using a standard log-linear regression approach. In vitro CLint values were scaled up using the following physiological scaling factors: 99E+06 cells/g human liver and 25.7 g human liver/kg body weight. Scaled intrinsic clearance values were finally introduced to the well-stirred liver model for the purpose of calculating predicted human hepatic clearance (CLhep,pred) in mL/min/kg assuming a human liver blood flow of 20.7 mL/min/kg and making no corrections for test article binding to red blood cells, plasma proteins, or components of the incubation system. S-Warfarin, Disopyramide and Diazepam were used as assay controls.

For series [3], the system named is Human cryopreserved hepatocytes. Described as above. In kind it is in vitro ADME. As to conditions: predicted human hepatic clearance, well-stirred liver model, scaled from in vitro CLint. The protocol:
as §1, §2

For another series, the system named is DLD-1 parental. In words: Cell growth inhibition assay (CellTiter-Glo cell viability, 7 days). In kind it is cell-based. As to conditions: Homo sapiens, 168 h, DLD-1 parental cells. The source says: Example A: Cell Growth Inhibition Assay
The objective of this study is to evaluate the effect of invention compounds on cell proliferation through the cell viability assay in DLD-1 BRCA2(−/−) and parental isogenic pair and MDA-MB-436 (mutated BRCA1) cell lines. The CellTiter-Glo (CTG) based cell viability assay is designed to determine the number of viable cells in the culture because of compound effect, by quantifying ATP, which indicates the presence of metabolically active cells.
DLD-1 BRCA2(−/−) and parental isogenic pair were cultured in RPMI 1640 supplemented with 10% fetal bovine serum (FBS), and MDA-MB-436 cells were cultured in DMEM supplemented with 10% FBS. Both are culture at 37° C. with 5% CO2. Invention compounds were distributed to the 384 well plate (Corning, 3764) using Echo acoustic liquid handler to form a 1:3 serially diluted final concentration with top dose of 10 or 30 μM. The cells were seeded into the plate in the density of 50 cells/well (DLD-1 parental), 200 cells/well (DLD-1 BRCA2−/−), or 500 cells/well (MDA-MB-436). After a short spun, the cells were cultured in a well moisturized incubator at 37° C. with 5% CO2 for 7 days without disturbance. The cell viability was measured by CellTiter Glo 2.0 assay kit (Promega, G9243), and growth inhibition rate was calculated and plotted against final compound concentration, and the data were fitted in Xfit to generate IC50.

Structures are written as SMILES.

We go through 16 compounds from US11591331B2, “PARP1 inhibitors and uses thereof” (Xinthera, Inc., priority 2021, dated 2023).

A word on the EC50: it is the concentration at which the effect is half-maximal. What is called half-life is the time needed for the level to fall by half in the phase considered. High values mean slow loss, low ones fast loss.

For the compound `CCc1cc2ncc(CN3CCN(c4ccc(C(=O)N[C@H](C)COC)nc4)CC3)cc2[nH]c1=O` [Example 56], the figures for the concentration giving a half-maximal response (EC50) (in the series with DLD-1 BRCA2(−/−); in series [1]) were 0.0071 µM and 0.0022 µM, respectively. The half-life at 1 µM in series [2] was greater than 62.1 h. The “Clhep,pred” value in series [3] is less than 0.9 mL/min/kg.
The compound `CCc1cc2ncc(CN3CCN(c4ccc(C(=O)NC)nc4)CC3)cc2[nH]c1=O` [AZD5305] registered a half-life at 1 µM in series [2] of 31.8 h. In addition, the “Clhep,pred” value in series [3] is listed as 1.69 mL/min/kg.
On to `CCc1cc2ncc(CN3CCN(c4cnc(C(=O)NC)c(F)c4)CC3)cc2[nH]c1=O` [Example 5, 5-(4-((7-ethyl-6-oxo-5,6-dihydro-1,5-naphthyridin-3-yl)methyl)piperazin-1-yl)-3-fluoro-N-methylpicolinamide], for which the half-maximal effective concentration (EC50) with DLD-1 BRCA2(−/−) is 0.0025 µM; in series [1] it was 0.0014 µM; in the series on DLD-1 parental, 470 µM. Moreover, in series [2], the half-life at 1 µM was 109 h. In series [3], the “Clhep,pred” value is listed as 0.53 mL/min/kg.
Take `CNC(=O)c1ccc(N2CCN(Cc3ccc4c(c3)[nH]c(=O)c3ccoc34)CC2)cn1` [Example 11, N-methyl-5-[4-({4-oxo-5H-furo[3,2-c]quinolin-7-yl}methyl)piperazin-1-yl]pyridine-2-carboxamide]: the results for the EC50 (in the series with DLD-1 BRCA2(−/−); in series [1]; with DLD-1 parental) were 0.0028 µM, 0.0011 µM and 440 µM, respectively.
On the same counts, the results for `CCc1cc2ncc(CN3CCN4c5ccc(C(=O)NC)nc5OC[C@H]4C3)cc2[nH]c1=O` [Example 22A, (R)-3-((7-ethyl-6-oxo-5,6-dihydro-1,5-naphthyridin-3-yl)methyl)-N-methyl-1,2,3,4,4a,5-hexahydropyrazino[1,2-d]pyrido[2,3-b][1,4]oxazine-8-carboxamide] are 0.0015 µM, 0.001 µM and greater than 30 µM.
As for `CNC(=O)c1ccc(N2CCN(Cc3cnc4cc(C5CC5)c(=O)[nH]c4c3)CC2)cn1` [Example 15, 5-{4-[(7-cyclopropyl-6-oxo-5H-1,5-naphthyridin-3-yl)methyl]piperazin-1-yl}-N-methylpyridine-2-carboxamide], the results for the concentration for a half-maximal effect (EC50) (in the series on DLD-1 BRCA2(−/−); in series [1]; in the series on DLD-1 parental) were 0.0018 µM, 0.0013 µM and greater than 30 µM, respectively. This compound also returned a half-life at 1 µM in series [2] greater than 62.1 h. For the same compound, in series [3], the “Clhep,pred” value was less than 0.9 mL/min/kg.
Regarding `CCc1cc2ncc(CN3CCN(c4ccc(C(=O)NC)cc4C#N)CC3)cc2[nH]c1=O` [Example 17, 3-cyano-4-{4-[(7-ethyl-6-oxo-5H-1,5-naphthyridin-3-yl)methyl]piperazin-1-yl}-N-methylbenzamide], the half-maximal effective concentration (EC50) is 0.0021 µM in the series on DLD-1 BRCA2(−/−), 0.0011 µM in series [1] and greater than 30 µM in the series with DLD-1 parental.
For `O=C(NC1CC1)c1ccc(N2CCN(Cc3cnc4cc(C5CC5)c(=O)[nH]c4c3)CC2)cn1` [Example 24, N-cyclopropyl-5-{4-[(7-cyclopropyl-6-oxo-5H-1,5-naphthyridin-3-yl)methyl]piperazin-1-yl}pyridine-2-carboxamide], the 50% effective concentration (EC50) in the series with DLD-1 BRCA2(−/−) is 0.0025 µM; in series [1], 0.0014 µM; with DLD-1 parental, greater than 30 µM. In series [2], this compound came in with a half-life at 1 µM greater than 62.1 h. Further, the “Clhep,pred” value in series [3] was less than 0.9 mL/min/kg.
In the case of `CNC(=O)c1ccc(N2CCN(Cc3cnc4cc(C)c(=O)[nH]c4c3)CC2)cn1` [Example 33], the EC50 was 0.0065 µM in the series with DLD-1 BRCA2(−/−), 0.0031 µM in series [1] and greater than 30 µM with DLD-1 parental.
In the case of `CCc1cc2ncc(CN3CCN(c4ccc(C(=O)NC)nc4C#N)CC3)cc2[nH]c1=O` [Example 1, 6-cyano-5-{4-[(7-ethyl-6-oxo-5H-1,5-naphthyridin-3-yl)methyl]piperazin-1-yl}-N-methylpyridine-2-carboxamide], the EC50 with DLD-1 BRCA2(−/−) is 0.0014 µM; in series [1], 0.00063 µM; in the series on DLD-1 parental, 5000 µM. The compound further showed a half-life at 1 µM in series [2] of 32.5 h. The “Clhep,pred” value in series [3] is on record as 1.67 mL/min/kg.
With `CCc1cc2ncc(CN3CCN(c4ccc(C(=O)NC)nc4C#N)[C@H](C)C3)cc2[nH]c1=O` [Example 4, 6-cyano-5-[(2R)-4-[(7-ethyl-6-oxo-5H-1,5-naphthyridin-3-yl)methyl]-2-methylpiperazin-1-yl]-N-methylpyridine-2-carboxamide], the EC50 in the series with DLD-1 BRCA2(−/−) was 0.0016 µM; in series [1], 0.00069 µM; in the series with DLD-1 parental, greater than 30 µM.
On the same counts, the results for `CCc1cc2ncc(CN3CCN(c4ccc(C(=O)NC)nc4)[C@@H](C)C3)cc2[nH]c1=O` (racemic) [Example 27] are 0.0041 µM, 0.001 µM and 32 µM.
As for `CNC(=O)c1ccc(N2CCN(Cc3ccc4cc(OC(F)F)c(=O)[nH]c4c3)CC2)cn1` [Example 31], the concentration for a half-maximal effect (EC50) came to 0.048 µM in the series on DLD-1 BRCA2(−/−), 0.015 µM in series [1] and 56 µM with DLD-1 parental.
On the same counts, the results for `CCc1cc2ncc(CN3CCC(c4ccc(C(=O)NC)nc4)CC3)cc2[nH]c1=O` [Example 16, 5-(1-((7-ethyl-6-oxo-5,6-dihydro-1,5-naphthyridin-3-yl)methyl)piperidin-4-yl)-N-methylpicolinamide] are 0.0042 µM, 0.0013 µM and greater than 30 µM.
On the same counts, the results for `CCc1cc2ncc(CN3CCN(c4ccc(C(=O)NC)nc4)[C@H]4C[C@H]43)cc2[nH]c1=O` (stereo in doubt) [Example 28] are 0.0032 µM, 0.0008 µM and 33 µM.
Take `CCc1cc2ncc(CN3CCN(c4ccc(C(=O)NC)nc4)[C@H](C)C3)cc2[nH]c1=O` [Example 2, 5-[(2R)-4-[(7-ethyl-6-oxo-5H-1,5-naphthyridin-3-yl)methyl]-2-methylpiperazin-1-yl]-N-methylpyridine-2-carboxamide]: the values for the EC50 (in the series with DLD-1 BRCA2(−/−); in series [1]; in the series on DLD-1 parental) were 0.0048 µM, 0.004 µM and greater than 30 µM, respectively. In series [2], the half-life at 1 µM was 31.5 h. The “Clhep,pred” value in series [3] is listed as 1.71 mL/min/kg.
